One assay deals with Histamine H4 receptor (Homo sapiens, UniProt Q9H3N8). In words: Binding affinity towards human histamine H4 receptor was determined by [3H]Na-methylhistamine binding to SK-N-MC cell membranes.
Assay [1] has as its target T1, Histamine H3 receptor (Homo sapiens, UniProt Q9Y5N1). Description: Effective concentration required against human histamine H3 receptor was determined by the inhibition of the cAMP stimulated beta-galactosidase transcription in SK-N-MC cells. It is filed as cell-based.
Assay [2] deals with T1, Histamine H3 receptor. In words: Intrinsic activity against human histamine H3 receptor.
Assay [3] addresses T1, Histamine H3 receptor. Description: Binding affinity towards human histamine H3 receptor was determined by [3H]Na-methylhistamine binding to SK-N-MC cell membranes.

The structures appear in SMILES notation. pEC50, pKi: −log10 of the molar value.

T1 sequence (Q9Y5N1 whole entry): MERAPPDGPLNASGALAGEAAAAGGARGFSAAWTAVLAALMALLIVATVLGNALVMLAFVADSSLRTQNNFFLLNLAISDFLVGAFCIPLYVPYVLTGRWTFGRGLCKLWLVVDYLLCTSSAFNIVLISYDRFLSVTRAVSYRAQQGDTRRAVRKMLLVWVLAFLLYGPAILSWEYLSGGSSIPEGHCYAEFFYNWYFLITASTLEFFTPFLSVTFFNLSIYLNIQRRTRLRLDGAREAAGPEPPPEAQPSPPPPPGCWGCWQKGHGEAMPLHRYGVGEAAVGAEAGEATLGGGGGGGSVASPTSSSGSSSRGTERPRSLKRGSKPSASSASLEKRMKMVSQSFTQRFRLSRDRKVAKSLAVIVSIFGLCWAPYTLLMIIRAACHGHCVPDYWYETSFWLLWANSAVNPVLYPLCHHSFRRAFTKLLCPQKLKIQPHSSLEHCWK
Chain of Histamine H4 receptor (Q9H3N8 whole entry): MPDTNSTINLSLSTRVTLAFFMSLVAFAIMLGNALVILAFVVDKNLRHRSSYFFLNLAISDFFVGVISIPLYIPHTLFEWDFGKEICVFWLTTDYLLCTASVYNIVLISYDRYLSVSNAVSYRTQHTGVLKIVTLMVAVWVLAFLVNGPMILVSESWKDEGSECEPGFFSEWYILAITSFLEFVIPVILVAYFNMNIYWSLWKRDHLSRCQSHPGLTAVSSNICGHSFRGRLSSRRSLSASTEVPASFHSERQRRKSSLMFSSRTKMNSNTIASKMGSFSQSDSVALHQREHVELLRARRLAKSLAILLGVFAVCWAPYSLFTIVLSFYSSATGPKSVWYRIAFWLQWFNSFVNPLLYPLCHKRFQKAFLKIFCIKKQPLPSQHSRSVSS

Broadly, the pKi is the Ki on a negative log10 scale, so that one unit is a factor of ten. A low value points to a large Ki. On Histamine H4 receptor, `CN1CCN(C(=O)Nc2nc3cc(Cl)ccc3[nH]2)CC1` had a negative-log Ki (pKi) of 4.70.
What is called pEC50 is −log10 of the EC50, conventionally taken in molar units. A higher pEC50 goes with a small EC50. As for `CN1CCN(C(=O)c2cc3cc(Br)ccc3[nH]2)CC1`, on Histamine H3 receptor [1], the pEC50 was 5.80. Further, the Intrinsic activity at Histamine H3 receptor [2] was -0.7. Further, the pKi on Histamine H3 receptor [3] was 5.50; at Histamine H4 receptor, 7.50.
For `CN1CCN(C(=O)c2cc3cc(Cl)ccc3[nH]2)CC1` [JNJ-7777120], the pEC50 at Histamine H3 receptor [1] was 6.00. The Intrinsic activity at Histamine H3 receptor [2] is -0.7. For the same compound, at Histamine H3 receptor [3], the pKi was 5.70.
As to `CN1CCC(C(O)c2cc3cc(Cl)ccc3[nH]2)CC1` (stereo not drawn), the pEC50 at Histamine H3 receptor [1] was 6.00. The Intrinsic activity on Histamine H3 receptor [2] was -0.5. Further, the results for the pKi at Histamine H3 receptor [3] and on Histamine H4 receptor were 5.80 and 5.30, respectively.
For `O=C(c1cc2cc(Cl)ccc2[nH]1)N1CCOCC1`, the pKi at Histamine H4 receptor was < 4.00.
As for `CN1CCN(C(=O)c2nc3cc(Cl)ccc3[nH]2)CC1`, the pEC50 on Histamine H3 receptor [1] was 5.50. In addition, the pKi was 5.40 at Histamine H3 receptor [3] and 7.10 on Histamine H4 receptor.
As to `CN(C)c1cccc(-c2nc3cc(Cl)ccc3[nH]2)c1`, the pKi at Histamine H4 receptor was < 4.00.
On Histamine H3 receptor [1], `CN1CCN(C(=O)c2cc3cc(I)ccc3[nH]2)CC1` showed a pEC50 of 5.50. The Intrinsic activity at Histamine H3 receptor [2] was -0.8. Further, the pKi on Histamine H3 receptor [3] was 5.60; on Histamine H4 receptor, 7.20.
For `CN(C)CCN(C)C(=O)c1nc2cc(Cl)ccc2[nH]1`, the pKi on Histamine H4 receptor was 4.60.
Compound `CN1CCN(NC(=O)c2cc3cc(Cl)ccc3[nH]2)CC1` gave a pKi at Histamine H4 receptor of 4.60.
On the same count and under the same terms, as for `CN(C)CCCNC(=O)c1cc2cc(Cl)ccc2[nH]1`, the figure is < 4.00.
The same measure, in the same setting: as for `CN1CCN(NC(=O)c2nc3cc(Cl)ccc3[nH]2)CC1`, the figure is < 4.00; as for `CN(C)CCN(C)C(=O)c1cc2cc(Cl)ccc2[nH]1`, 4.60.
Compound `CN(C)CCNC(=O)c1cc2cc(Cl)ccc2[nH]1` came in with an Intrinsic activity on Histamine H3 receptor [2] of 0. The values for the pKi at Histamine H3 receptor [3] and at Histamine H4 receptor were 5.30 and 5.50, respectively.
Regarding `CN(C)CCNC(=O)c1nc2cc(Cl)ccc2[nH]1`, the pEC50 at Histamine H3 receptor [1] is 5.50. For the same compound, the Intrinsic activity at Histamine H3 receptor [2] was -0.5. For the same compound, the pKi was 4.60 on Histamine H3 receptor [3] and 6.00 at Histamine H4 receptor.
In the case of `O=C(c1cc2cc(Cl)ccc2[nH]1)N1CCCCC1`, the pEC50 at Histamine H3 receptor [1] is 5.50. In addition, the Intrinsic activity on Histamine H3 receptor [2] was -0.6. Also, the negative logarithm of the Ki (pKi) on Histamine H3 receptor [3] is 5.20; at Histamine H4 receptor, 5.10.
As for `CC(=O)Nc1nc2cc(Cl)ccc2[nH]1`, at Histamine H4 receptor, the pKi was < 4.00.
As to `CN1CCC(C(=O)c2cc3cc(Cl)ccc3[nH]2)CC1`, the pEC50 on Histamine H3 receptor [1] was 6.00. The Intrinsic activity on Histamine H3 receptor [2] is -0.5. In addition, the pKi at Histamine H3 receptor [3] was 5.50; on Histamine H4 receptor it was 6.70.
Regarding `CN1CCN(C(=O)c2nc3ccc(Cl)cc3[nH]2)CC1`, the Intrinsic activity on Histamine H3 receptor [2] was -1.

For the origin of these results see ChEMBL document CHEMBL1137049 (Bioorg Med Chem Lett, 2004).
